Experimental data: patent US12637471B2, “Heterocyclic compounds, compositions, methods of preparation and uses thereof” (Organon R&D Finland Ltd, priority 2021, dated 2026)

Columns and labels:
Type in all cases: biochemical
[1] = target: T1, Recombinant human AKR1C3 (17β-HSD5) protein (Homo sapiens, UniProt P42330); test: Inhibition of AKR1C3 (17β-hydroxysteroid dehydrogenase type 5) enzyme, fluorescence assay; settings: inhibitor at 500 nM
T1 construct: made in house; host or cells: E. coli
T1 sequence (P42330 1-323): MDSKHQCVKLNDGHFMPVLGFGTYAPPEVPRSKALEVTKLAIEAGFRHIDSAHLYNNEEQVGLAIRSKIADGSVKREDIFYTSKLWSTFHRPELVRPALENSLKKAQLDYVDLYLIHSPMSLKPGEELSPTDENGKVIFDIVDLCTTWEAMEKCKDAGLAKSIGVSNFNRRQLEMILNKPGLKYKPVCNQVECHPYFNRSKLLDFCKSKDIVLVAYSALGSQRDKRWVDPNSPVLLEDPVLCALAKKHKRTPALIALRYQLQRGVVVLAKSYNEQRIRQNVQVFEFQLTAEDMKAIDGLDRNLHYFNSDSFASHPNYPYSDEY
Procedure: Inhibition of AKR1C3 (17β-Hydroxysteroid Dehydrogenase Type 5) Enzyme
Recombinant human AKR1C3 (17β-HSD5) protein (GenBank Accession No. NM_003739.6) produced in E. coli was used for screening. Recombinant protein (27 nM/1 μg/ml) was incubated in 20 mM KH2PO4, 1 mM EDTA, complete protease inhibitor cocktail, pH 7.4 with 1 μM 9-acetyl-2,3,6,7-tetrahydro-1H,5H,11H-pyrano[2,3-f]pyrido[3,2,1-ij]quinolin-11-one and 1 mM NADPH for 60 to 120 min at RT, in the presence of the potential inhibitor at 500 nM concentration. Inhibitor stock solutions were prepared in DMSO. Final concentration of DMSO was adjusted to 1% in all samples. The samples were analysed by fluorescent measurement with Tecan Spark microplate reader at wavelengths 420 nm for excitation and 510 nm for emission. Samples were evaluated against standards of 9-(1-hydroxyethyl)-2,3,6,7-tetrahydro-1H,5H,11H-pyrano[2,3-f]pyrido[3,2,1-ij]quinolin-11-one at concentrations 1 μM-10 nM. Background fluorescence was reduced from all the samples and standards. The concentrations of formed product were calculated from the standard curve with Tecan Spark Magellan software. The formed product concentrations were used to calculate conversion percentages. The inhibition percentages for the samples were calculated from the conversion percentages.
Inhibition percentages of samples were calculated using following formula: […]

[2] = target: T2, Recombinant human aldo-keto reductase family 1 member C2 (AKR1C2) protein (Homo sapiens, UniProt P52895); test: Inhibition of the aldo-keto reductase family 1 member C2, 3H-dihydrotestosterone conversion; settings: inhibitor at 10 μM
T2 construct: made in house; host or cells: Sf-9 insect cells (baculovirus)
T2 sequence (P52895 1-323): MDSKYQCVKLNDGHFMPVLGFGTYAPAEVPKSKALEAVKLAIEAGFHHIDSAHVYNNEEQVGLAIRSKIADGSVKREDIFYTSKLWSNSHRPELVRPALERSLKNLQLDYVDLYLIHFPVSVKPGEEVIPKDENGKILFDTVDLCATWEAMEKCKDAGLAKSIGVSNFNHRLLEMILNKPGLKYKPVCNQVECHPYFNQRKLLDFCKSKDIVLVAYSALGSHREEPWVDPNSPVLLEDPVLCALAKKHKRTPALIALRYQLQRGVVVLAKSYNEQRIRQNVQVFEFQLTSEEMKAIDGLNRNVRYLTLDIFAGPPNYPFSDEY
Procedure: Inhibition of the Aldo-Keto Reductase Family 1 Member C2
Recombinant human aldo-keto reductase family 1 member C2 (AKR1C2) protein (GenBank Accession No. NM_001354.6) produced in Sf-9 insect cells with baculovirus was used for screening. Recombinant protein (13.6 nM/0.5 μg/ml) was incubated in 20 mM KH2PO4 pH 7.4, 1 mM EDTA, complete protease inhibitor tablet, 1 mM NADPH with 6.25 nM ^3H-labelled dihydrotestosterone for 45 min at +37° C., in the presence of the potential inhibitor at 10 μM concentration. Inhibitor stock solutions were prepared in DMSO. Final concentration of DMSO was adjusted to 1% in all samples. The enzyme reaction was stopped by addition of 10% trichloroacetic acid (final concentration 1%). Samples were filtrated through […] filtration plate (Merck). Analyses of samples was done with Waters Acquity UPLC H-class equipped with XBridge C18 column and XBridge VanGuard C18 guard column. Acetonitrile: 0.1% formic acid in water (42/58 v/v) with flow of 1.2 ml/min was used for mobile phase. The eluent was mixed with scintillant and the radioactivity was monitored in the eluate by a Scintillation Analyser. The conversion percentage of triated substrate (dihydrotestosterone) to tritiated product (5α-androstane-3α,17β-diol) for each sample was determined by the relative percentages of substrate and product in the chromatogram. The inhibition percentages of samples were calculated using following formula: […]

[3] = target: T3, 17β-Hydroxysteroid Dehydrogenase Type 2 Enzyme (17β-HSD2) (Homo sapiens, UniProt P37059); test: Inhibition of the 17β-hydroxysteroid dehydrogenase type 2 enzyme, 3H-testosterone conversion; settings: inhibitor at 10 μM
T3 construct: made in house; host or cells: Sf-9 insect cells (baculovirus)
T3 sequence (P37059 1-387): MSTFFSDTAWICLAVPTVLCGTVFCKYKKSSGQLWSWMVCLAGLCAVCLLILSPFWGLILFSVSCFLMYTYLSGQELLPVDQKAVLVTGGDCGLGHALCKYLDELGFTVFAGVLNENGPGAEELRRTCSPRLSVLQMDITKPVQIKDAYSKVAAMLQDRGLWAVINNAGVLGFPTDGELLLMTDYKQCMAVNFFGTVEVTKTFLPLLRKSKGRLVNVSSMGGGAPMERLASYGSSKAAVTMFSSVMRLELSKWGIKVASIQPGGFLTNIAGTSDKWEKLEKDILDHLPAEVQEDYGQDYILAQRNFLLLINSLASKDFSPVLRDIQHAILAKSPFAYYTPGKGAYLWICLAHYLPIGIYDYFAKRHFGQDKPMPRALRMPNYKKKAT
Procedure: Inhibition of the 17β-Hydroxysteroid Dehydrogenase Type 2 Enzyme
Recombinant human 173-HSD2 protein (GenBank Accession No. NM_002153.3) produced in Sf-9 insect cells with baculovirus was used for screening.
Recombinant protein (105 nM/4.5 μg/ml) was incubated in 20 mM KH2PO4 pH 8.5, 1 mM EDTA, complete protease inhibitor cocktail, 1 mM NAD with 56.25 nM testosterone (including ^3H-labelled testosterone) for 30 min at RT, in the presence of the potential inhibitor at 10 μM concentration. Inhibitor stock solutions were prepared in DMSO. Final concentration of DMSO was adjusted to 1% in all samples. The enzyme reaction was stopped by addition of 10% trichloroacetic acid (final concentration 1%). Samples were filtrated through […] filtration plate. Analyses of samples was done with Waters Acquity UPLC H-class equipped with XBridge C18 column and XBridge VanGuard C18 guard column. Acetonitrile: 0.1% formic acid in water (42/58 v/v) with flow of 1.2 ml/min was used for mobile phase. The eluent was mixed with scintillant and the radioactivity was monitored in the eluate by a Scintillation Analyser. The conversion percentage of tritiated substrate (testosterone) to product tritiated (androstenedione) for each sample was determined by the relative percentages of substrate and product in the chromatogram. The inhibition percentages of samples were calculated using following formula: […]

| SMILES | inhibition at 0.5 µM [1] [%] | inhibition at 10 µM [2] [%] | inhibition at 10 µM [3] [%] |
| --- | --- | --- | --- |
| CN(C(=O)N1CCC(=C(C#N)c2ccc(Cl)cc2)CC1)C1COC1 [Compound 169, 4-((4-chlorophenyl)(cyano)methylene)-N-methyl-N-(oxetan-3-yl)piperidine-1-carboxamide] | 95 | 7 | -2 |
| N#CC(=C1CCN(C(=O)N2C3CCC2COC3)CC1)c1ccc(F)cc1F [Compound 37, 2-(1-(3-oxa-8-azabicyclo[3.2.1]octane-8-carbonyl)piperidin-4-ylidene)-2-(2,4-difluorophenyl)acetonitrile] | 96 | 14 | 25 |
| N#CC(=C1CCN(C(=O)N2CC3CCCC3C2)CC1)c1ccc(F)cc1 (stereo not drawn) [Compound 101, 2-(4-fluorophenyl)-2-(1-(octahydrocyclopenta[c]pyrrole-2-carbonyl)piperidin-4-ylidene)acetonitrile] | 90 | 11 | 14 |
| N#CC(=C1CCN(C(=O)N2CCc3ccccc32)CC1)c1ccc(F)cc1 [Compound 102, 2-(4-fluorophenyl)-2-(1-(indoline-1-carbonyl)piperidin-4-ylidene)acetonitrile] | 99 | 17 | 12 |
| N#CC(=C1CCN(C(=O)N2CCn3cncc3C2)CC1)c1ccc(F)cc1F [Compound 123, 2-(2,4-difluorophenyl)-2-(1-(5,6,7,8-tetrahydroimidazo[1,5-a]pyrazine-7-carbonyl)piperidin-4-ylidene)acetonitrile] | 99 | 33 | 2 |
| CCN(CC)C(=O)N1CCC(=C(C#N)c2ccc(F)cn2)CC1 [Compound 172, 4-(cyano(5-fluoropyridin-2-yl)methylene)-N,N-diethylpiperidine-1-carboxamide] | 95 | -2 | 13 |
| N#CC(=C1CCN(C(=O)N2CCn3cncc3C2)CC1)c1ccc(Cl)cn1 [Compound 68, 2-(5-chloropyridin-2-yl)-2-(1-(5,6,7,8-tetrahydroimidazo[1,5-a]pyrazine-7-carbonyl)piperidin-4-ylidene)acetonitrile] | 98 | 11 | 8 |
| COC1CCN(C(=O)N2CCC(=C(C#N)c3ccc(Cl)s3)CC2)CC1 [Compound 78, 2-(5-chlorothiophen-2-yl)-2-(1-(4-methoxypiperidine-1-carbonyl)piperidin-4-ylidene)acetonitrile] | 99 | 15 | 27 |
| CCOC1CCN(C(=O)N2CCC(=C(C#N)c3ccc(Cl)s3)CC2)CC1 [Compound 125, 2-(5-chlorothiophen-2-yl)-2-(1-(4-ethoxypiperidine-1-carbonyl)piperidin-4-ylidene)acetonitrile] | 97 | 18 | 17 |
| N#CC(=C1CCN(C(=O)N2CCC(CO)CC2)CC1)c1ccc(OC(F)(F)F)cc1 [Compound 53, 2-(1-(4-(hydroxymethyl)piperidine-1-carbonyl)piperidin-4-ylidene)-2-(4-(trifluoromethoxy)phenyl)acetonitrile] | 97 | 7 | 15 |
| COC1CCN(C(=O)N2CCC(=C(C#N)c3cccc(Cl)c3)CC2)CC1 [Compound 17, 2-(3-chlorophenyl)-2-(1-(4-methoxypiperidine-1-carbonyl)piperidin-4-ylidene)acetonitrile] | 98 | 8 | 31 |
| N#CC(=C1CCN(C(=O)N2CCc3[nH]ncc3C2)CC1)c1ccc(F)cc1 [Compound 25, 2-(4-fluorophenyl)-2-(1-(4,5,6,7-tetrahydro-1H-pyrazolo[4,3-c]pyridine-5-carbonyl)piperidin-4-ylidene)acetonitrile] | 98 | 28 | 27 |
| N#CC(=C1CCN(C(=O)N2CCc3nocc3C2)CC1)c1ccc(Cl)cc1 [Compound 141, 2-(4-chlorophenyl)-2-(1-(4,5,6,7-tetrahydroisoxazolo[4,3-c]pyridine-5-carbonyl)piperidin-4-ylidene)acetonitrile] | 98 | 33 | 7 |
| N#CC(=C1CCN(C(=O)N2CCC(O)CC2)CC1)c1ccc(Cl)s1 [Compound 57, 2-(5-chlorothiophen-2-yl)-2-(1-(4-hydroxypiperidine-1-carbonyl)piperidin-4-ylidene)acetonitrile] | 96 | 13 | 3 |
| N#CC(=C1CCN(C(=O)N2CCC(CO)CC2)CC1)c1cccc(Cl)c1 [Compound 88, 2-(3-chlorophenyl)-2-(1-(4-(hydroxymethyl)piperidine-1-carbonyl)piperidin-4-ylidene)acetonitrile] | 99 | 13 | 26 |
| N#CC(=C1CCN(C(=O)N2CCc3sccc3C2)CC1)c1cccc2[nH]ncc12 [Compound 114, 2-(1H-indazol-4-yl)-2-(1-(4,5,6,7-tetrahydrothieno[3,2-c]pyridine-5-carbonyl)piperidin-4-ylidene)acetonitrile] | 97 | 11 | 34 |
